{
  "source": "patent US20110207751A1",
  "about": "“HETEROCYCLIC COMPOUNDS AND USES AS ANTICANCER AGENTS” (priority 2010, published 2011)",
  "key": {"[1]": {"system": "MKN45 human gastric-intestinal cancer xenograft", "test": "In vivo antitumor efficacy, MKN45 xenograft", "parameters": "species or system BALB/c immunodeficient nude mice", "details": "for Tumor inhibition rate %: by tumor weight", "description": "(§1) To evaluate the in vivo anticancer efficacy of COMPOUND O, MKN45 human gastric-intestinal cancer xenograft models in immunodeficient nude mice was tested. All the mouse models are maintained in the Pharmacology Lab of ACEA Bio (Hangzhou) CO., Ltd. The BALB/c immunodeficient nude mice were purchased from Shanghai SLAC Laboratory Animal, certification number: SCXKA (Shanghai) 2007-0005. The mouse weight was 19±1 g. Only female mice were used in this study. The numbers of animals tested were as follow: 7 for each dose group, 7 for positive control group and 7 for negative control group.\n(§2) Test Control. For negative control, each mouse was administered orally with the solvent only having the same volume and same concentration as those used in COMPOUND O test, 120 mg/kg once every other day (qod) for 18 days. […]\n(§3) Preparation an Administration of Test Compounds. COMPOUND O was dissolved in 25% phospholipid (S75) and 75% polyvinylpyrrolidone (PL-PVP) then further diluted to 8 mg/ml in 0.9% NaCl aqueous solution. Different dosages of COMPOUND O between 120 mg/kg qod (once every other day) and 160 mg/kg q3d (once every 3 days) were used in the study.\nPreparation of tumor cells for transplantation and determination of compound efficacy. To prepare the tumor cells for MKN45 human gastric-intestinal cancer xenograft model, the fast grown tumors were first removed from the transplanted tumor mice, the tumor tissues were dissected to 1-2 mm^3 in dimension. These micro-tumors were then subcutaneously injected into the auxiliary region (right-side) of each mouse. After the inoculated tumors grew to a certain size (60-80 mm^3) in the nude mice, the mice were randomized into different dosing groups and subjected to compound treatment. Between 2-3 weeks after the first dosing, mice were sacrificed and the transplanted tumors were removed from experimental mice. Each removed solid tumor was weighed; the tumor inhibition rate in each dosage group was calculated according to the formula:\nTumor inhibition rate %=(average weight of tumor in the negative control group−average weight of tumor in the compound treated group)/average weight of tumor in the negative control group×100 (1)\n(§4) All used materials including animal food, animal cage, supporting materials and apparatus contacted by animals, were high-pressure sterilized. Nude mice were maintained in laminar flow shelves under SPF condition. After tumor transplantation, mouse weight and tumor size in each compound dosage group were dynamically monitored and plotted. The tumor size was determined by measuring the major axis (a) and minor axis (b) of the tumor, and tumor volume was calculated according to the formula: […]"}, "[2]": {"system": "SKOV3 cells (human ovarian cancer cell line)", "test": "Inhibition of cell proliferation, xCelligence cell index", "assay_type": "cell-based", "details": "SK-OV-3, 72 hr post compound treatment, read-out: calculated IC50", "from_the_text": "The biological activity of compounds disclosed herein was monitored and profiled using the Real-Time Cell Electronic Sensing (RT-CES®) system from ACEA Biosciences, Inc. The RT-CES system utilizes cell-substrate impedance technology to monitor cellular behavior inside tissue culture wells in a microtiter plate format. The technology features in the integration of molecular and cell biology with microelectronics and is based on the electronic detection of biological assay process. […]\nFor measurement of cell-substrate or cell-electrode impedance using RT-CES technology, microelectrodes having appropriate geometries are fabricated onto the bottom surfaces of microtiter plate or similar device, facing into the wells. […] When there are changes to the biological status of the cells analogue electronic readout signals are measured automatically and in real time, and are converted to digital signals for processing and for analysis. In a RT-CES system, a cell index (arbitrary representation of change in impedance) is automatically derived and provided based on measured electrode impedance values. […]\nTo quantify cell status based on the measured cell-electrode impedance, a parameter termed Cell Index is derived. Cell Index is a quantitative measure of the status of the cells in an electrode-containing well. […]"}, "[3]": {"test": "Body weight and animal number of carrier mice, MKN45 xenograft test", "assay_type": "in vivo, BALB/c immunodeficient nude mice", "details": "for Animal No. end: 7 at beginning", "description": "as §1, §2, §3, §4"}},
  "note": "Structures can show the parent of a compound that is named as a salt.",
  "data": [
    {"smiles": "CCc1ccc(Nc2nc(-c3c(C)nc4sccn34)cs2)cc1", "note": "[COMPOUND O, 2-(4-ethylphenyl)amino-4-(6-methylimidazo[2,1-b]thiazol-5-yl)-thiazole monohydrobromide]", "values": [
      {"measurement": "TV inhibition rate % T/C", "setting": "[1]; 120 mg/kg ig × 9 qod", "result": 44.1, "unit": "%"},
      {"measurement": "Tumor volume (mm^3) End", "setting": "[1]; 120 mg/kg ig × 9 qod", "result": "905 ± 403", "unit": "mm^3"},
      {"measurement": "Tumor volume (mm^3) Start", "setting": "[1]; 120 mg/kg ig × 9 qod", "result": "69.58 ± 11", "unit": "mm^3"},
      {"measurement": "Tumor weight (g) x ± SD", "setting": "[1]; 120 mg/kg ig × 9 qod", "result": "0.835 ± 0.41", "unit": "g"},
      {"measurement": "Tumor inhibition rate %", "setting": "[1]; 120 mg/kg ig × 9 qod", "result": 58.0, "unit": "%"},
      {"measurement": "TV inhibition rate % T/C", "setting": "[1]; 160 mg/kg ig × 6 q3d", "result": 45.3, "unit": "%"},
      {"measurement": "Tumor volume (mm^3) End", "setting": "[1]; 160 mg/kg ig × 6 q3d", "result": "904 ± 347", "unit": "mm^3"},
      {"measurement": "Tumor volume (mm^3) Start", "setting": "[1]; 160 mg/kg ig × 6 q3d", "result": "67.75 ± 25", "unit": "mm^3"},
      {"measurement": "Tumor weight (g) x ± SD", "setting": "[1]; 160 mg/kg ig × 6 q3d", "result": "0.881 ± 0.467", "unit": "g"},
      {"measurement": "Tumor inhibition rate %", "setting": "[1]; 160 mg/kg ig × 6 q3d", "result": 55.7, "unit": "%"},
      {"measurement": "IC50", "setting": "[2]", "result": 5.47, "unit": "nM"},
      {"measurement": "Animal weight (g) Beginning", "setting": "[3]; 120 mg/kg ig × 9 qod", "result": 19, "unit": "g"},
      {"measurement": "Animal weight (g) end", "setting": "[3]; 120 mg/kg ig × 9 qod", "result": 16.7, "unit": "g"},
      {"measurement": "Body weight of mice (g) 1 day", "setting": "[3]; 120 mg/kg ig × 9 qod", "result": "19.03 ± 0.76", "unit": "g"},
      {"measurement": "Body weight of mice (g) 4 day", "setting": "[3]; 120 mg/kg ig × 9 qod", "result": "19.53 ± 0.71", "unit": "g"},
      {"measurement": "Body weight of mice (g) 8 day", "setting": "[3]; 120 mg/kg ig × 9 qod", "result": "18.24 ± 1.10", "unit": "g"},
      {"measurement": "Body weight of mice (g) 11 day", "setting": "[3]; 120 mg/kg ig × 9 qod", "result": "18.21 ± 1.02", "unit": "g"},
      {"measurement": "Body weight of mice (g) 16 day", "setting": "[3]; 120 mg/kg ig × 9 qod", "result": "17.09 ± 1.09", "unit": "g"},
      {"measurement": "Body weight of mice (g) 18 day", "setting": "[3]; 120 mg/kg ig × 9 qod", "result": "16.71 ± 0.97", "unit": "g"},
      {"measurement": "Animal No. end", "setting": "[3]; 120 mg/kg ig × 9 qod", "result": "7/7"},
      {"measurement": "Animal weight (g) Beginning", "setting": "[3]; 160 mg/kg ig × 6 q3d", "result": 18.3, "unit": "g"},
      {"measurement": "Animal weight (g) end", "setting": "[3]; 160 mg/kg ig × 6 q3d", "result": 15.7, "unit": "g"},
      {"measurement": "Body weight of mice (g) 1 day", "setting": "[3]; 160 mg/kg ig × 6 q3d", "result": "18.37 ± 0.66", "unit": "g"},
      {"measurement": "Body weight of mice (g) 4 day", "setting": "[3]; 160 mg/kg ig × 6 q3d", "result": "19.10 ± 0.73", "unit": "g"},
      {"measurement": "Body weight of mice (g) 8 day", "setting": "[3]; 160 mg/kg ig × 6 q3d", "result": "17.33 ± 1.52", "unit": "g"},
      {"measurement": "Body weight of mice (g) 11 day", "setting": "[3]; 160 mg/kg ig × 6 q3d", "result": "17.15 ± 1.33", "unit": "g"},
      {"measurement": "Body weight of mice (g) 16 day", "setting": "[3]; 160 mg/kg ig × 6 q3d", "result": "16.43 ± 1.47", "unit": "g"},
      {"measurement": "Body weight of mice (g) 18 day", "setting": "[3]; 160 mg/kg ig × 6 q3d", "result": "15.73 ± 1.31", "unit": "g"},
      {"measurement": "Animal No. end", "setting": "[3]; 160 mg/kg ig × 6 q3d", "result": "7/3"}
    ]},
    {"smiles": "COc1cc([C@@H]2c3cc4c(cc3[C@@H](O[C@@H]3O[C@@H]5CO[C@@H](C)O[C@H]5[C@H](O)[C@H]3O)[C@H]3COC(=O)[C@H]23)OCO4)cc(OC)c1O", "note": "[Etoposide, reference compound]", "values": [
      {"measurement": "TV inhibition rate % T/C", "setting": "[1]; 50 mg/kg ig × 6 q3d", "result": 56.9, "unit": "%"},
      {"measurement": "Tumor volume (mm^3) End", "setting": "[1]; 50 mg/kg ig × 6 q3d", "result": "1164 ± 483", "unit": "mm^3"},
      {"measurement": "Tumor volume (mm^3) Start", "setting": "[1]; 50 mg/kg ig × 6 q3d", "result": "69.46 ± 16", "unit": "mm^3"},
      {"measurement": "Tumor weight (g) x ± SD", "setting": "[1]; 50 mg/kg ig × 6 q3d", "result": "1.024 ± 0.345", "unit": "g"},
      {"measurement": "Tumor inhibition rate %", "setting": "[1]; 50 mg/kg ig × 6 q3d", "result": 48.4, "unit": "%"},
      {"measurement": "Animal weight (g) Beginning", "setting": "[3]; 50 mg/kg ig × 6 q3d", "result": 18.9, "unit": "g"},
      {"measurement": "Animal weight (g) end", "setting": "[3]; 50 mg/kg ig × 6 q3d", "result": 16.9, "unit": "g"},
      {"measurement": "Body weight of mice (g) 1 day", "setting": "[3]; 50 mg/kg ig × 6 q3d", "result": "18.94 ± 0.92", "unit": "g"},
      {"measurement": "Body weight of mice (g) 4 day", "setting": "[3]; 50 mg/kg ig × 6 q3d", "result": "19.57 ± 1.16", "unit": "g"},
      {"measurement": "Body weight of mice (g) 8 day", "setting": "[3]; 50 mg/kg ig × 6 q3d", "result": "17.17 ± 0.85", "unit": "g"},
      {"measurement": "Body weight of mice (g) 11 day", "setting": "[3]; 50 mg/kg ig × 6 q3d", "result": "17.26 ± 1.24", "unit": "g"},
      {"measurement": "Body weight of mice (g) 16 day", "setting": "[3]; 50 mg/kg ig × 6 q3d", "result": "16.94 ± 0.91", "unit": "g"},
      {"measurement": "Body weight of mice (g) 18 day", "setting": "[3]; 50 mg/kg ig × 6 q3d", "result": "16.93 ± 0.75", "unit": "g"},
      {"measurement": "Animal No. end", "setting": "[3]; 50 mg/kg ig × 6 q3d", "result": "7/7"}
    ]},
    {"smiles": "CC(=O)O[C@H]1C(=O)[C@@]2(C)[C@H]([C@H](OC(=O)c3ccccc3)[C@]3(O)C[C@H](OC(=O)[C@H](O)[C@@H](NC(=O)c4ccccc4)c4ccccc4)C(C)=C1C3(C)C)[C@]1(OC(C)=O)CO[C@@H]1C[C@@H]2O", "note": "[paclitaxel]", "values": [
      {"measurement": "IC50", "setting": "[2]", "result": 5.34, "unit": "nM"}
    ]}
  ]
}
